Assay results as given in paper PMC12207370, “Macrocyclic Peptide Probes for Immunomodulatory Protein CD59: Potent Modulators of Bacterial Toxin Activity and Antibody‐Dependent Cytotoxicity” (Angewandte Chemie (International Ed. in English), 2025).
Numbered stars: 1 amine (or outer) side, 2 acyl side, 3 side chain; on linkers, the order of the positions; unused ones are H or OH. Bridge positions count the residues as written; N and C are the ends. Square brackets hold non-standard residues; d marks the D form. Peptide text beside a SMILES is read from it. I, II: the chains in the order shown. CO(CH2CH2O)5CH2CH2CO = O=C(CCOCCOCCOCCOCCOCCC(=O)[*:2])[*:1]

Tested on: SK-BR-3 cells
Test: ILY lysis assay (Sytox green, IncuCyte) in SK-BR-3 cells
Assay type: cell-based, human
Experimental: Figure 5 CP‐06 and optimized analogues control CD59 activity in cellular assays. a) ILY lysis assay. SK‐BR‐3 cells were treated with CP‐06 (n = 4) or CP‐06[W3A] (n = 2), then with Sytox green dye and ILY ([…]). The plate was imaged immediately with the IncuCyte S3 Live Cell Analysis System and then every hour up to 14 h. The linear phase of lysis was taken from each well, and linear regression was performed to extract individual slope values, which were then normalized to maximum lysis rate (Sytox and ILY) vs. 0% lysis (Sytox only) within each plate. […] Human erythrocytes were sensitized with 1% w/v anti‐human erythrocyte Ab with 5% v/v human serum in the presence of a serial dilution of CP‐06C18 (black bars) or CP‐06scrmb‐C18 (red bars) Percent lysis enhancement was calculated by normalization to 0% enhancement (buffer well) and plotted as the mean of three biological replicates ± SEM.
Determination of optimal ILY concentration: 20,000 SK-BR-3 cells were seeded in a 96-well plate (Grenier, 655180) 24 h before treatment. […] Any bubbles were removed by a de-bubbler and the plate was immediately transferred to IncuCyte® S3 Live Cell Analysis System where each well was imaged 4 times at 10 × magnification with phase contrast and green fluorescence (λex 440–480 nm, λem = 504–544 nm) every hour for 24 h. […]

SMILES: CC(C)[C@@H]1NC(=O)[C@H](CO)NC(=O)[C@H](CO)NC(=O)[C@H](CCCNC(=N)N)NC(=O)[C@H](CC(N)=O)NC(=O)CNC(=O)[C@H](Cc2c[nH]c3ccccc23)NC(=O)[C@H]([C@@H](C)O)NC(=O)[C@H](Cc2c[nH]c3ccccc23)NC(=O)[C@H](CO)NC(=O)[C@@H](Cc2ccc(O)cc2)NC(=O)CSC[C@@H](C(=O)NCC(=O)N[C@@H](CCCCNC(=O)CCOCCOCCOCCOCCOCCC(=O)NCCCC[C@H](NC(=O)CNC(=O)[C@@H]2CSCC(=O)N[C@H](Cc3ccc(O)cc3)C(=O)N[C@@H](CO)C(=O)N[C@@H](Cc3c[nH]c4ccccc34)C(=O)N[C@@H]([C@@H](C)O)C(=O)N[C@@H](Cc3c[nH]c4ccccc34)C(=O)NCC(=O)N[C@@H](CC(N)=O)C(=O)N[C@@H](CCCNC(=N)N)C(=O)N[C@@H](CO)C(=O)N[C@@H](CO)C(=O)N[C@@H](C(C)C)C(=O)N[C@@H](CCCNC(=N)N)C(=O)NCC(=O)N2)C(=O)NCC(N)=O)C(=O)NCC(N)=O)NC(=O)CNC(=O)[C@H](CCCNC(=N)N)NC1=O [CP-06dimer] (I: {CH2CO}-[dY]SWTWGNRSSVRGCGKG-NH2 / II: {CH2CO}-[dY]SWTWGNRSSVRGCGKG-NH2; linker I:16-II:16 via CO(CH2CH2O)5CH2CH2CO; thioether I:N-I:14, II:N-II:14)
- inhibition of ILY lysis (in words): completely inhibits ILY lysis
